Reference: patent US20110065595A1, “Method and Test Kit for the Rapid Identification and Characterization of Cells” (priority 2007, published 2011)

System: strain B of Bacillus cereus (β-lactamase SF-marker)
Experiment: Sensitivity profile of B. cereus in soil suspension using inducible β-lactamase as SF-marker (iodometric starch-iodine decolorization)
Type: cell-based
Details: for inhibition of the enzymatic reaction / remaining part of the enzymatic reaction: compared with control sample; for increase of time needed for decolorization versus control: compared with control sample (47 seconds); for effect on activity / synthesis of the SF marker (β-lactamase) / sensitivity or resistance of strain B to the antibiotic: judged from decolorization time; for Decolorization time: soil suspension in nutrient broth with 1.0 mcg cloxacillin inducer, 10 min at 30° C., then Assay Reagent with phenoxymethylpenicillin, control without addition 47 seconds, activity inversely proportional to time
Procedure: Reagents • Nutrient broth and Nutrient Agar were purchased from Difco (cat. No. #233000 and #211665, respectively). • Mueller Hinton agar—purchased from Difco (cat. No. 225250). • Assay Reagent solution—50 mM potassium iodide and 10 mM iodine in 0.75% aqueous starch solution • L-alanine—was used for spore germination (purchased from Fluka, cat no. 29236).
BBL antibiotic sensitivity testing disks were used for sensitivity profiling were placed in respective test tubes:
Preparation of anti-penicillinase antibodies was previously described by the present inventor [Citri, N; et al. Nature 190 (478):1010-1011 (1961)]. Briefly neutralizing antiserum was prepared by immunizing rabbits with a highly purified preparation of exopenicillinase produced by strain 569/H of B. cereus. Twenty mg of the enzyme were administered with Freund's adjuvant in three intramuscular injections at ten-day intervals.
In order to perform a combined characterization of bacteria identification and antibiotic sensitivity profiling, the inventor used a strain of Bacillus cereus expressing the characterizing enzyme β-lactamase (penicillinase) that is used herein as a structural-functional marker (SF-marker).
A colony of strain B of Bacillus cereus was dispersed in 0.5 gm of garden soil suspended in 3 ml of distilled water. Samples of the suspension, 0.3 ml each, were placed in 5 test, tubes, each containing 0.5 ml nutrient broth [double strength] spiked with 1.0 mcg cloxacillin, and each supplemented as listed in Table 1 below. After 10 min. at 30° C. the test was initiated by the addition to each test tube of 0.1 ml of the Assay Reagent solution containing the substrate, phenoxymethylpenicillin [10 mg/mL]. The time required for complete decolorization of the starch-iodine complex by the product of the catalytic reaction was recorded as shown in Table 1.

effect on activity / synthesis of the SF marker (β-lactamase)	sensitivity or resistance of strain B to the antibiotic	Compound	inhibition of the enzymatic reaction	remaining part of the enzymatic reaction	increase of time needed for decolorization versus control	Decolorization time
inhibited	sensitive	C[C@H]1c2cccc(O)c2C(=O)C2=C(O)[C@]3(O)C(=O)C(C(N)=O)=C(O)[C@@H](N(C)C)[C@@H]3[C@@H](O)[C@@H]21 [Doxycyclin, Doxycycline]	about 99%	about 0.12%	about 17.3 folds	815 s
inhibited	sensitive	CC[C@H]1OC(=O)[C@H](C)[C@@H](O[C@H]2C[C@@](C)(OC)[C@@H](O)[C@H](C)O2)[C@H](C)[C@@H](O[C@@H]2O[C@H](C)C[C@H](N(C)C)[C@H]2O)[C@](C)(O)C[C@@H](C)C(=O)[C@H](C)[C@@H](O)[C@]1(C)O [Erythromycin]	about 99%	about 0.12%	~18 folds	>850 s

Compound	effect on activity / synthesis of the SF marker (β-lactamase)	sensitivity or resistance of strain B to the antibiotic	inhibition of the enzymatic reaction	remaining part of the enzymatic reaction	increase of time needed for decolorization versus control	Decolorization time
Gentamicin	no effect	resistant	–	–	–	48 s
